Assay results from US20210346476A1, “Modified FVIII Apitope Peptides” (APITOPE INTERNATIONAL NV, priority 2012, published 2021).
No end group written: not given here.

Assay: Direct dissolution of tagged peptides in aqueous solvent (PBS) at 4 mg/mL, NanoDrop
Type: physicochemical
Conditions: 4 mg/mL in PBS vs DMSO control; FIG. 2
Procedure: For each test peptide and the parent peptides (PRCLT and DNIMV) two tubes were prepared at 4 mg/mL in either DMSO (control) or PBS.
Each tube was spun at full speed in a mini-centrifuge for 5 minutes. A 10 μL sample was removed from the top of each solution and the molecular weight and coefficient of absorption was recorded for each peptide.
The absorbance of the supernatant was measured using NanoDrop and the concentration calculated. In this Figure, greater disparity between the actual and expected concentration corresponds to lower relative solubility.

Solubility in PBS compared to the parent peptides, improved solubility in PBS:
KEGDNIMVTFRNQASRPYGKE [SEQ ID No. 26]
KEGDNIMVTFRNQASRPYGKK [SEQ ID No. 25]
KEGPRCLTRYYSSFVNMEGKE [SEQ ID No. 10]
KEGPRCLTRYYSSFVNMEGKK [SEQ ID No. 9]
KKGDNIMVTFRNQASRPYGKE [SEQ ID No. 18]
KKGDNIMVTFRNQASRPYGKK [SEQ ID No. 17]
KKGPRCLTRYYSSFVNMEGKE [SEQ ID No. 2]
KKGPRCLTRYYSSFVNMEGKK [SEQ ID No. 1]
